How the values were obtained:
[1] = system: Guinea pig tracheal smooth muscle; experiment: Electrical field stimulated guinea pig tracheal smooth muscle contraction; conditions: guinea pig tracheal strips, sub-maximal EFS; 95% CI 0.78-0.94; read-out: IC50, inhibition of EFS-induced tracheal smooth muscle contraction
Text: It is possible to assess the bronchodilating effects of sGC stimulators by using the system described below. This system allows us to determine potency, efficacy and duration of action of several sGC stimulators, as well as to assess potential side effects such as blood pressure, or heart rate changes.
Animals: Guinea pig, Dunkin Hartley, male, Full barrier-bred and certified free of specific micro-organisms on receipt 525-609 g on the experimental day, Harlan UK Ltd. Guinea pigs are housed in a group of 4 in solid-bottomed cages with Gold Flake bedding in a controlled environment (airflow, temperature and humidity). Food (FD1, Special Diet Services) and water are provided ad libitum.
On each experimental day, a guinea pig is killed by exposure to a rising concentration of CO2 and the trachea removed. […] Tissues are washed with Kreb's buffer and stimulated using the previously determined sub-maximal voltage for 1 hour to establish a stable baseline contraction prior to assessment of compound activity.
A cumulative dose response curve (DRC) to each test substance is then performed and changes in smooth muscle contraction measured. The effect of each test substance in each experiment is expressed as a percentage inhibition of the baseline contraction, normalized to the relevant vehicle controls. […]

[2] = system: adult patients with sickle cell disease; conditions: acute VOE, vs placebo; cited from earlier work
[3] = system: adult sickle cell disease patients; conditions: infusions; cited from earlier work
[4] = system: sickle cell disease patients with severe PHT; conditions: cited from earlier work
[5] = system: mdx mouse; conditions: cited from earlier work
[6] = system: NO-defficient rats; conditions: NO-deficient rats; cited from earlier work
[7] = target: T1, soluble guanylate cyclase (sGC) (Homo sapiens, UniProt Q02108+Q02153); experiment: sGC-HEK-cGMP assay with LC/MS detection; format: cell-based; conditions: HEK293 whole cells, LC/MS detection of cGMP, 10 μM DETA-NONOate; 50% of high control response (30 μM Compound Y); read-out: Absolute EC50 (nM)- binned (~)
T1 construct: endogenously expressing soluble guanylate cyclase (sGC); endogenous in cells; host or cells: HEK293
T1 sequence (Q02153 1-619): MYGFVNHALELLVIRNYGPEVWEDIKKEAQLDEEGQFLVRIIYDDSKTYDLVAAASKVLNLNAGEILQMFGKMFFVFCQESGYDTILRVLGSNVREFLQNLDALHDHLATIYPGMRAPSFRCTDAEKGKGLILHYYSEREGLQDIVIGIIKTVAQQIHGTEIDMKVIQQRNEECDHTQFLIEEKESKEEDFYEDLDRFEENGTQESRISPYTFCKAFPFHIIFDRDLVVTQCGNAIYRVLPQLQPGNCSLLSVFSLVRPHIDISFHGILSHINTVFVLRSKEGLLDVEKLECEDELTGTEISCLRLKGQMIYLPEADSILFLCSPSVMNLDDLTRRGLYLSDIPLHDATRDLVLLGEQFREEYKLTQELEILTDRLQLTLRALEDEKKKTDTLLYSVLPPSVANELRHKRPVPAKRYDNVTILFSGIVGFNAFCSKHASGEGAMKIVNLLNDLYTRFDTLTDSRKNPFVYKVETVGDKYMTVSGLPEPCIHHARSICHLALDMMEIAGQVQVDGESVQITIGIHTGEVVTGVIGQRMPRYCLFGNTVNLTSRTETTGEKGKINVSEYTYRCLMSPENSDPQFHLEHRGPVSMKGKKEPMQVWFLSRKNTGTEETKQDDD
T1 sequence (Q02108 1-690): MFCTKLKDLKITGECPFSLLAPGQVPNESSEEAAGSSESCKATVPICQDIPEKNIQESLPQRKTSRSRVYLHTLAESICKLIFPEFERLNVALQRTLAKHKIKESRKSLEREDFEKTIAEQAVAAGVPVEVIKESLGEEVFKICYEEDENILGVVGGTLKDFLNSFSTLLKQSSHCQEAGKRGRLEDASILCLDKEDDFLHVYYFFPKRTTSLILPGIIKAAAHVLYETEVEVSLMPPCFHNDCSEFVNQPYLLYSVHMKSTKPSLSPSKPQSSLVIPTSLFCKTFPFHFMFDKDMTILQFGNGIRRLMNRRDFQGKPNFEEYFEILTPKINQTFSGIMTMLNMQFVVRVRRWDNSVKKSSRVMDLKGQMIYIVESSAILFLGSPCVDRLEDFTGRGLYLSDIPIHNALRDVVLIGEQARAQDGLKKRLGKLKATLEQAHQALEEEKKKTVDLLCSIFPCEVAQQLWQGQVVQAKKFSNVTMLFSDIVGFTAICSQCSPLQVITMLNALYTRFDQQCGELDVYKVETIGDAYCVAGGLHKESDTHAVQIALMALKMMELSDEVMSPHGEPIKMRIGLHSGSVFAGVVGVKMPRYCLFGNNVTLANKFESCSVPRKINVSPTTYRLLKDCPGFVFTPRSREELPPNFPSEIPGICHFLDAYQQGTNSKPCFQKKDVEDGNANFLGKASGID

[8] = system: Sprague-Dawley Rats; experiment: Blood pressure change in Sprague-Dawley rats; format: in vivo, rat; conditions: 10 mpk PO, conscious Sprague-Dawley rats
Experimental: Male rats (250-350 g body weight, supplied by Harlan Laboratories) were anesthetized with ketamine/xylazine and a heparinized saline fluid filled catheter implanted into the right femoral artery. The catheter was exteriorized between the scapula, capped, and the animal allowed to recover for at least 7 days post surgery prior to any compound testing. Prior to testing animals were maintained on normal diet, with free access to drinking water, under a 12 hour light-dark cycle.
On the day of experimentation, under inhaled isoflurane anesthesia, the catheter was uncapped and connected to a tether (Instech Labs) and pressure transducer (Harvard Apparatus). Blood pressure and heart rate were subsequently captured and analyzed with a dedicated data capture system (PowerLab, ADInstruments). Data sampling rates were set at 1 cycle per second. Once connected, each rat was allowed to recover from anesthesia and baseline blood pressure and heart rate levels were established in these conscious, freely-moving animals. Once baseline was established either vehicle (0.5% methylcellulose or 100% PEG400) or test article was administered orally (PO, 10 mg/kg) and the effects on blood pressure and heart rate monitored for up to 24 hours.
Data are reported as hourly averages and changes in blood pressure are calculated from subtracting individual baseline on an hourly basis (Table 4)

[9] = system: obese mice; conditions: cited from earlier work
[10] = system: sickle mice; conditions: oral, high doses; cited from earlier work

CC(C)[N+]1(C)[C@@H]2CC[C@H]1CC(OC(=O)C(CO)c1ccccc1)C2 (some centres unmarked) [Ipratropium bromide, ipratropium bromide]
IC50 [1]: 0.86 nM

nitric oxide [inhaled NO]
pain scores [2]: significantly reduced pain scores

O=NO [sodium nitrite]
forearm blood flow [3]: enhanced forearm blood flow

CCCc1nn(C)c2c(=O)[nH]c(-c3cc(S(=O)(=O)N4CCN(C)CC4)ccc3OCC)nc12 [sildenafil, Sildenafil]
serious side effects (VOE, headache, visual disturbance) ([4]; Walk-PHaSST multicenter trial, stopped prematurely): higher frequency of serious side effects
PAP and exercise capacity ([4]; sickle cell disease patients with severe PHT): improvements in PAP and exercise capacity
muscle ischemia, injury and fatigue after a brief bout of exercise [5]: alleviate muscle ischemia, as well as injury and fatigue

Nc1nc(-c2nn(Cc3ccccc3F)c3ncccc23)ncc1C1CC1 [BAY-2272]
bladder dysfunction [6]: protective effects

Fc1cnc(-c2cc(-c3ccon3)n(Cc3ccccc3F)n2)nc1 [Compound 109]
EC50 [7]: 100 to 1000 nM
Rat Mean Arterial Pressure peak change from baseline (at 3 or 10 mpk@) [8]: B (B = −20 ≤ peak change from baseline at 3 or 10 mpk ≤ −10)

O=C(O)CCCCN(CCc1cc(F)ccc1OCc1ccc(-c2ccc(C(F)(F)F)cc2)cc1)Cc1ccc(C(=O)O)cc1 [BAY 60-2770]
overactive bladder [9]: ameliorates overactive bladder

N=C(N)NCCC[C@H](N)C(=O)O [L-arginine, arginine]
Gardos channel activity, dense cell formation and hemolysis [10]: decrease Gardos channel activity, dense cell formation and hemolysis

Reference: patent publication US20190284168A1, “PYRAZOLE DERIVATIES AS SGC STIMULATORS” (IRONWOOD PHARMACEUTICALS, INC., priority 2014, published 2019)
